# Results reported in PubChem BioAssay AID248 (DTP/NCI, 2004).
# Values joined by “and” are separate entries in the source; they are usually repeats but may differ in a detail not shown here. Equal entries are not always repeated. Toxic doses and inconclusive results are not listed.
# Test system: L1210 leukemia ip in BDF1 mice, survival T/C
# Test: NCI In Vivo Anticancer Drug Screen. Data for tumor model L1210 Leukemia (intraperitoneal) in B6D2F1 (BDF1) mice
# Conditions: endpoint: mean survival time, higher = longer survival
# Outline: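 Antitumor effect is assessed in tumor-bearing animals. Survival in the compound arm is compared with a vehicle-dosed control arm and expressed as their quotient.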
# [1] = dose: 50.0 mg/kg/injection, schedule: Q01DX009 (ip), vehicle: saline with Tween-80
# [2] = dose: 100.0 mg/kg/injection, schedule: Q01DX009 (ip), vehicle: saline with Tween-80
# [3] = dose: 100.0 mg/kg/injection, schedule: Q04DX003 (ip), vehicle: Klucel (hydroxypropylcellulose) (HPC)
# [4] = dose: 100.0 mg/kg/injection, schedule: Q01DX001 (ip), vehicle: carboxymethylcellulose (CMC)
# [5] = dose: 200.0 mg/kg/injection, schedule: Q01DX001 (ip), vehicle: carboxymethylcellulose (CMC)
# [6] = dose: 100.0 mg/kg/injection, schedule: Q01DX001 (ip), vehicle: saline
# [7] = dose: 200.0 mg/kg/injection, schedule: Q01DX001 (ip), vehicle: saline
# [8] = dose: 400.0 mg/kg/injection, schedule: Q01DX001 (ip), vehicle: carboxymethylcellulose (CMC)
# [9] = dose: 100.0 mg/kg/injection, schedule: Q01DX001 (ip), vehicle: Klucel (hydroxypropylcellulose) (HPC)
# [10] = dose: 200.0 mg/kg/injection, schedule: Q01DX001 (ip), vehicle: Klucel (hydroxypropylcellulose) (HPC)
# [11] = dose: 100.0 mg/kg/injection, schedule: Q01DX009 (ip), vehicle: Klucel (hydroxypropylcellulose) (HPC)
# [12] = dose: 200.0 mg/kg/injection, schedule: Q01DX009 (ip), vehicle: Klucel (hydroxypropylcellulose) (HPC)
smiles,measurement,setting,value
C1CCC(C2=NC3CCCCC3SC2)CC1 (configuration not stated),T/C,"dose: 100.0 mg/kg/injection, schedule: Q04DX002 (sc), vehicle: olive oil, sesame oil, peanut oil",103 % of control
same,T/C,"dose: 200.0 mg/kg/injection, schedule: Q04DX002 (sc), vehicle: olive oil, sesame oil, peanut oil",107 % of control
same,T/C,"dose: 400.0 mg/kg/injection, schedule: Q04DX002 (sc), vehicle: olive oil, sesame oil, peanut oil",96 % of control
CC(C)=CCc1cccc(C)c1,T/C,[1],94 % of control
same,T/C,[2],98 % of control
same,T/C,"dose: 200.0 mg/kg/injection, schedule: Q01DX009 (ip), vehicle: saline with Tween-80",105 % of control
CCOC(=O)CNC(=O)C1CSC(C)(C)N1C=O (configuration not stated),T/C,"dose: 100.0 mg/kg/injection, schedule: Q04DX003 (ip), vehicle: saline",101 % of control
same,T/C,"dose: 200.0 mg/kg/injection, schedule: Q04DX003 (ip), vehicle: saline",94 % of control
same,T/C,"dose: 400.0 mg/kg/injection, schedule: Q04DX003 (ip), vehicle: saline",101 % of control
Cc1nc2c(NC(=O)CCl)nn(C)c2nc1C,T/C,[1],98 % of control
same,T/C,[2],98 % of control
Nc1cc2ccc(S(=O)(=O)O)cc2cc1S(=O)(=O)O,T/C,[3],100 % of control
same,T/C,"dose: 200.0 mg/kg/injection, schedule: Q04DX003 (ip), vehicle: Klucel (hydroxypropylcellulose) (HPC)",97 % of control
same,T/C,"dose: 400.0 mg/kg/injection, schedule: Q04DX003 (ip), vehicle: Klucel (hydroxypropylcellulose) (HPC)",91 % of control
O=C(N/N=C/c1ccc(Cl)cc1)c1ccc(Cl)cc1,T/C,"dose: 100.0 mg/kg/injection, schedule: Q04DX003 (ip), vehicle: saline with Tween-80",105 % of control
same,T/C,"dose: 200.0 mg/kg/injection, schedule: Q04DX003 (ip), vehicle: saline with Tween-80",98 % of control
same,T/C,"dose: 400.0 mg/kg/injection, schedule: Q04DX003 (ip), vehicle: saline with Tween-80",91 % of control
O=NN(CCCl)C(=O)Nc1ccc(Cl)c(Cl)c1,T/C,"dose: 5.0 mg/kg/injection, schedule: Q01DX009 (ip), vehicle: carboxymethylcellulose (CMC)",121 % of control
same,T/C,"dose: 8.0 mg/kg/injection, schedule: Q01DX009 (ip), vehicle: carboxymethylcellulose (CMC)",114 % of control
same,T/C,"dose: 17.0 mg/kg/injection, schedule: Q01DX015 (ip), vehicle: carboxymethylcellulose (CMC)",114 % of control
same,T/C,"dose: 26.0 mg/kg/injection, schedule: Q01DX015 (ip), vehicle: carboxymethylcellulose (CMC)",163 % of control and 167 % of control
same,T/C,"dose: 39.0 mg/kg/injection, schedule: Q01DX015 (ip), vehicle: carboxymethylcellulose (CMC)",119 % of control and 121 % of control
same,T/C,"dose: 58.0 mg/kg/injection, schedule: Q01DX015 (ip), vehicle: carboxymethylcellulose (CMC)",117 % of control and 89 % of control
same,T/C,[4],116 % of control
same,T/C,[5],161 % of control
same,T/C,"dose: 300.0 mg/kg/injection, schedule: Q01DX001 (ip), vehicle: carboxymethylcellulose (CMC)",89 % of control
Nc1ccc(C(=O)N/N=C/c2ccc(N(CCBr)CCBr)cc2)cc1,T/C,"dose: 12.5 mg/kg/injection, schedule: Q01DX Z (ip), vehicle: carboxymethylcellulose (CMC)",124 % of control
same,T/C,[6],98 % of control
same,T/C,[7],108 % of control
COc1c2ccoc2cc2oc(C)cc(=O)c12,T/C,"dose: 37.5 mg/kg/injection, schedule: Q01DX001 (ip), vehicle: carboxymethylcellulose (CMC)",103 % of control
same,T/C,"dose: 75.0 mg/kg/injection, schedule: Q01DX001 (ip), vehicle: carboxymethylcellulose (CMC)",100 % of control
same,T/C,"dose: 150.0 mg/kg/injection, schedule: Q01DX001 (ip), vehicle: carboxymethylcellulose (CMC)",108 % of control
CN(Cc1ccccc1)c1ccccc1,T/C,"dose: 50.0 mg/kg/injection, schedule: Q01DX001 (ip), vehicle: saline",97 % of control
same,T/C,[6],97 % of control
same,T/C,[7],97 % of control
same,T/C,"dose: 400.0 mg/kg/injection, schedule: Q01DX001 (ip), vehicle: saline",97 % of control
CC(=O)CSc1ccc(C(C)(C)C)cc1,T/C,[4],102 % of control
same,T/C,[5],96 % of control
same,T/C,[8],105 % of control
Cc1ccc(NCN2C(=O)NC(c3ccccc3)(c3ccccc3)C2=O)cc1,T/C,[9],93 % of control
same,T/C,[10],103 % of control
same,T/C,"dose: 400.0 mg/kg/injection, schedule: Q01DX001 (ip), vehicle: Klucel (hydroxypropylcellulose) (HPC)",92 % of control
CCSC(=O)n1nc(Cl)c2cc([N+](=O)[O-])ccc21,T/C,[4],93 % of control
same,T/C,[5],102 % of control
same,T/C,[8],93 % of control
CCCC(C)OS(=O)(=O)c1ccc(N)cc1 (configuration not stated),T/C,[11],113 % of control
same,T/C,[12],95 % of control
O=c1[nH]c(=O)c2n[nH]nc2[nH]1,T/C,"dose: 1.0 mg/kg/injection, schedule: Q01DX009 (ip), vehicle: saline",103 % of control
same,T/C,"dose: 2.0 mg/kg/injection, schedule: Q01DX009 (ip), vehicle: saline",93 % of control
same,T/C,"dose: 4.0 mg/kg/injection, schedule: Q01DX009 (ip), vehicle: saline",95 % of control
same,T/C,"dose: 8.0 mg/kg/injection, schedule: Q01DX009 (ip), vehicle: saline",103 % of control
same,T/C,"dose: 16.0 mg/kg/injection, schedule: Q01DX009 (ip), vehicle: saline",101 % of control
same,T/C,"dose: 16.0 mg/kg/injection, schedule: Q01DX015 (ip), vehicle: carboxymethylcellulose (CMC)",88 % of control
same,T/C,"dose: 75.0 mg/kg/injection, schedule: Q01DX009 (ip), vehicle: saline",110 % of control
same,T/C,[4],96 % of control
same,T/C,"dose: 115.0 mg/kg/injection, schedule: Q01DX009 (ip), vehicle: saline",107 % of control
same,T/C,"dose: 125.0 mg/kg/injection, schedule: Q01DX015 (ip), vehicle: carboxymethylcellulose (CMC)",92 % of control
same,T/C,"dose: 170.0 mg/kg/injection, schedule: Q01DX009 (ip), vehicle: saline",98 % of control
same,T/C,[5],102 % of control
same,T/C,"dose: 255.0 mg/kg/injection, schedule: Q01DX009 (ip), vehicle: saline",97 % of control
same,T/C,"dose: 385.0 mg/kg/injection, schedule: Q01DX009 (ip), vehicle: saline",105 % of control
same,T/C,[8],91 % of control
COc1c(NC(=O)Nc2ccc(F)c([N+](=O)[O-])c2)cccc1[N+](=O)[O-],T/C,[11],93 % of control
same,T/C,[12],101 % of control
same,T/C,"dose: 400.0 mg/kg/injection, schedule: Q01DX009 (ip), vehicle: Klucel (hydroxypropylcellulose) (HPC)",97 % of control
CCCCSSCCCC,T/C,"dose: 50.0 mg/kg/injection, schedule: Q01DX001 (ip), vehicle: Klucel (hydroxypropylcellulose) (HPC)",94 % of control
same,T/C,[9],102 % of control
same,T/C,[10],105 % of control
C=COC(=O)N(C)C,T/C,"dose: 50.0 mg/kg/injection, schedule: Q01DX009 (ip), vehicle: saline",89 % of control
same,T/C,"dose: 50.0 mg/kg/injection, schedule: Q04DX003 (ip), vehicle: acetone",98 % of control
same,T/C,[6],96 % of control
same,T/C,"dose: 100.0 mg/kg/injection, schedule: Q01DX009 (ip), vehicle: saline",94 % of control
same,T/C,"dose: 100.0 mg/kg/injection, schedule: Q04DX003 (ip), vehicle: acetone",96 % of control
same,T/C,[7],107 % of control
same,T/C,"dose: 200.0 mg/kg/injection, schedule: Q01DX009 (ip), vehicle: saline",95 % of control
same,T/C,"dose: 200.0 mg/kg/injection, schedule: Q04DX003 (ip), vehicle: acetone",95 % of control
CN(C)C(SCc1c(Cl)c(Cl)c(Cl)c(Cl)c1Cl)=[N+](C)C,T/C,"dose: 3.0 mg/kg/injection, schedule: Q04DX002 (ip), vehicle: saline",101 % of control
same,T/C,"dose: 6.0 mg/kg/injection, schedule: Q04DX002 (ip), vehicle: saline",93 % of control
same,T/C,"dose: 12.0 mg/kg/injection, schedule: Q04DX002 (ip), vehicle: saline",104 % of control
O=S(=O)(F)c1cc(Cl)c(S)cc1Cl,T/C,"dose: 25.0 mg/kg/injection, schedule: Q04DX003 (ip), vehicle: Klucel (hydroxypropylcellulose) (HPC)",96 % of control
same,T/C,"dose: 50.0 mg/kg/injection, schedule: Q04DX003 (ip), vehicle: Klucel (hydroxypropylcellulose) (HPC)",96 % of control
same,T/C,[3],98 % of control and 106 % of control
